These compounds were tested against T1, WD repeat-containing protein 5 (Homo sapiens, UniProt P61964) (assay: Antagonist activity at WDR5 (unknown origin)).

Row | IC50 | Structure (SMILES)
1 | 6 µM | O=C(O)c1ccc2ccccc2c1-c1c(C(=O)O)ccc2ccccc12

What follows are compounds tested against T1, WD repeat-containing protein 5.

Row | Structure (SMILES) | Kd
2 | CC(=O)Nc1cc([N+](=O)[O-])ccc1N1CCN(C)CC1 | > 10 µM
3 | CN1CCN(c2ccc(C3CC3)cc2NC(=O)c2ccccc2Cl)CC1 | > 10 µM
4 | CN1CCN(c2ccc([N+](=O)[O-])cc2NC(=O)c2ccc(F)cc2Cl)CC1 | 0.63 µM
5 | CN1CCCN(c2ccc([N+](=O)[O-])cc2NC(=O)c2ccccc2Cl)CC1 | 7 µM
6 | CN1CCN(c2ccc(Br)cc2NC(=O)c2ccccc2Cl)CC1 | > 10 µM
7 | CN1CCN(c2ccc([N+](=O)[O-])cc2NC(=O)c2cccc3ncccc23)CC1 | 1.5 µM
8 | CCN1CCN(c2ccc([N+](=O)[O-])cc2NC(=O)c2ccccc2Cl)CC1 | > 20 µM
9 | CN1CCN(c2ccc([N+](=O)[O-])cc2NC(=O)C2CCCCC2)CC1 | > 10 µM
10 | Cc1cccc(C(=O)Nc2cc([N+](=O)[O-])ccc2N2CCN(C)CC2)c1 | 1.1 µM
11 | CN1CCN(c2ccc(C(F)(F)F)cc2NC(=O)c2ccccc2Cl)CC1 | > 10 µM
12 | CN1CCN(c2ccc([N+](=O)[O-])cc2NC(=O)c2ccc(F)cc2)CC1 | 3.1 µM
13 | CN1CCN(c2ccc([N+](=O)[O-])cc2NC(=O)c2cccc(O)c2)CC1 | > 10 µM
14 | CN1CCN(c2ccc(-c3ccco3)cc2NC(=O)c2ccccc2Cl)CC1 | 3.5 µM
15 | NC1CCN(c2ccc([N+](=O)[O-])cc2NC(=O)c2ccccc2Cl)C1 (stereo not drawn) | > 20 µM
16 | CN(C)CCN(C)c1ccc([N+](=O)[O-])cc1NC(=O)c1ccccc1Cl | > 20 µM
17 | CN1CCN(c2ccc([N+](=O)[O-])cc2NC(=O)c2cccc3ccccc23)CC1 | 0.71 µM
18 | CN1CCN(c2ccc([N+](=O)[O-])cc2NC(=O)c2cccc(Cl)c2)CC1 | 1.8 µM
19 | CN1CCN(c2ccc(-c3ccncc3)cc2NC(=O)c2ccccc2Cl)CC1 | 2.2 µM
20 | CN1CCN(c2ccc([N+](=O)[O-])cc2NC(=O)c2ccco2)CC1 | > 10 µM

More lines, now with the values ahead:

Row | Kd | Structure (SMILES)
21 | 6.6 µM | COC(=O)c1ccc(N2CCN(C)CC2)c(NC(=O)c2ccccc2Cl)c1
22 | 0.59 µM | Cc1cc(C(=O)Nc2cc([N+](=O)[O-])ccc2N2CCN(C)CC2)ccc1F
23 | > 20 µM | O=C(Nc1cc([N+](=O)[O-])ccc1N1CCOCC1)c1ccccc1Cl
24 | > 20 µM | O=C(Nc1cc([N+](=O)[O-])ccc1N1CCCCC1)c1ccccc1Cl
25 | > 10 µM | CN1CCN(c2ccc(C(=O)O)cc2NC(=O)c2ccccc2Cl)CC1
26 | > 20 µM | NC1CCN(c2ccc([N+](=O)[O-])cc2NC(=O)c2ccccc2Cl)CC1
27 | 1.4 µM | COc1cccc(C(=O)Nc2cc([N+](=O)[O-])ccc2N2CCN(C)CC2)c1
28 | 0.68 µM | COc1cc(C(=O)Nc2cc([N+](=O)[O-])ccc2N2CCN(C)CC2)ccc1F
29 | > 20 µM | CN(C)C1CCN(c2ccc([N+](=O)[O-])cc2NC(=O)c2ccccc2Cl)CC1
30 | > 10 µM | CN1CCN(c2ccc(N)cc2NC(=O)c2ccccc2Cl)CC1
31 | 15.8 µM | CN(C)C1CCN(c2ccc([N+](=O)[O-])cc2NC(=O)c2ccccc2Cl)C1 (stereo not drawn)
32 | 4.7 µM | CC1CN(c2ccc([N+](=O)[O-])cc2NC(=O)c2ccccc2Cl)CCN1C (stereo not drawn)
33 | 5.8 µM | CN1CCN(c2ccc([N+](=O)[O-])cc2NC(=O)c2ccccc2)CC1
34 | > 10 µM | CN1CCN(c2ccc([N+](=O)[O-])cc2NC(=O)Cc2ccccc2)CC1
35 | > 20 µM | O=C(Nc1cc([N+](=O)[O-])ccc1F)c1ccccc1Cl
36 | 1.1 µM | Cc1cccc(C(=O)Nc2cc([N+](=O)[O-])ccc2N2CCN(C)CC2)c1Cl
37 | > 10 µM | CN1CCN(c2ccc([N+](=O)[O-])cc2NC(=O)c2cccnc2)CC1
38 | > 20 µM | O=C(Nc1cc([N+](=O)[O-])ccc1N1CCNCC1)c1ccccc1Cl

From ChEMBL document CHEMBL2331202, “Synthesis, Optimization, and Evaluation of Novel Small Molecules as Antagonists of WDR5-MLL Interaction” (ACS Med Chem Lett, 2013)
